According to patent US20140142180A1, “METHODS OF TREATING TUMORS HAVING ELEVATED MCT1 EXPRESSION” (Whitehead Institute for Biomedical Research, priority 2012, published 2014):

Assays:
[1] = system: ER negative cells; assay: 3-BrPA sensitivity of ER negative tumor cell lines; type: cell-based; conditions: MCT1 expressed at high levels
[2] = system: parental KBM7 cells; assay: Luciferase-based ATP assay, parental KBM7 cells; type: cell-based, human; conditions: 30 min treatment
Procedure: (§1) The bioenergetic profiles of KBM7 and MDA-MB-231 cells in response to 3-BrPA were determined using a Seahorse Bioscience XF24 Extracellular Flux Analyzer (Seahorse Bioscience). For the indicated experiments, 250,000 KBM7 or 40,000 MDA-MB-231 cells seeded in Seahorse tissue culture plates using unbuffered RPMI (10 mM Glucose). KBM7 cells were attached to the plates using CellTak (Clontech) one hour prior to the start of the experiment. For AUC (area under the curve) OCR and ECAR measurements, three consecutive readings were performed for each cell line. For experiments where 3-BrPA is used, after 3 consecutive readings, 50 μM 3-BrPA was injected through port A and ECAR and OCAR levels were measured. Lactate production was measured as described previously^50. For ATP assays, 20,000 cells were seeded and treated for 30 min with indicated amounts of 3-BrPA and ATP levels were determined using a luciferase-based assay (Promega). For metabolite measurements, 10 million wild type and MCT1 null KBM7 cells were cultured for 1 hour in presence of 50 μM 3-BrPA before metabolite extraction. Then, cells were rapidly washed three times with cold PBS, and then metabolites were extracted by addition of 80% ice-cold methanol followed after incubation on dry ice for 15 min. Endogenous metabolite profiles were obtained using LC-MS as described^51. Metabolite levels (n=3) were normalized to cell number.

[3] = system: breast cancer lines; assay: 3-BrPA sensitivity versus MCT1 protein level in breast cancer lines; type: cell-based, human
Procedure: (§2) Cell lines (5,000-20,000) were seeded in 96-well plates and treated with indicated amounts of 3-BrPA. After 3 days of treatment, CellTiter-Glo (Promega) and/or CyQuant (Invitrogen) were used to measure survival percentage for each concentration compared to untreated cells. FACS analysis with Annexin V and 7AAD staining was performed according to manufacturer's manual (BD Pharmingen).
Briefly, cells were rinsed twice in ice-cold PBS and harvested in a standard lysis buffer containing 50 mM Hepes, pH 7.4, 40 mM NaCl, 2 mM EDTA, 1.5 mM orthovanadate, 50 mM NaF, 10 mM pyrophosphate, 10 mM glycerophosphate, protease inhibitors (Roche) and 1% Triton-X-100. Proteins from total lysates were resolved by 8-12% SDS-PAGE, and analyzed by immunoblotting as described using anti-MCT1 (Millipore; Ab3540), anti-RPS6 and anti-raptor antibodies (1:1000)^50. For quantitation, ImageJ software was used and the signals were normalized using an equal loading control (RPS6/Raptor). Immunohistochemistry was performed on formalin-fixed paraffin embedded sections using a boiling Dako antigen retrieval method (Dako). A 1:500 dilution of the anti-MCT1 antibody was used for staining.

[4] = system: MDA-MB-468 cells; assay: Cell survival assay, MDA-MB-468; type: cell-based, human
Procedure: as §2
(§3) 15 cell lines (BT-474, BT-549, CAK1-1, CAL-51, HCC-70, HS578T, JURKAT, MDA-MB-157, MDA-MB-231, MDA-MB-453, MDA-MB-468, PC-3, SK-BR-3, T47D, ZR-75-1) were treated with 3-BrPA (0-300 μM). After 3 days, cell viability was quantified via CellTiter-Glo assay and an IC50 from the resulting dose-response curve was interpolated using a nonlinear regression model. Transcriptome-wide normalized mRNA levels from gene expression profiling experiments performed on the Affymetrix Human Genome U133 Plus 2.0 chip were obtained from the CCLE for all 15 cell lines. The mRNA expression pattern across all 15 samples for each of the genes was then correlated with the IC50 values. Similar correlation analysis was performed using OCR/ECAR values for each cell line.

[5] = system: T47D cells; assay: Cell survival assay, T47D; type: cell-based, human; conditions: low MCT1 level
Procedure: as §2, §3

[6] = system: glyceraldehyde phosphate dehydrogenase (GAPDH); assay: LC-MS metabolite profiling, wild type relative to MCT1-null KBM7 cells; type: cell-based, human
Procedure: as §1

[7] = system: BT-549 cells; assay: Cell survival assay, BT-549; type: cell-based, human
Procedure: as §2, §3

[8] = system: AMPK and ACC phosphorylation; assay: Immunoblot of AMPK and ACC phosphorylation, wild type KBM7 cells; type: cell-based, human; conditions: 50 μM 3-BrPA
[9] = wild type relative to MCT1-null KBM7, 50 μM, 1 hour, LC-MS

SMILES: O=C(O)C(=O)CBr [3-BrPA, 3-bromopyruvic acid]
- sensitivity to 3-BrPA [1]: highly sensitive
- total ATP levels [2]: substantial decrease
- sensitivity to 3-BrPA ([3]; breast cancer lines with high MCT1 protein levels): sensitive
- sensitivity to 3-BrPA ([3]; breast cancer lines with low to no MCT1): resistant to even high concentrations
- sensitivity to 3-BrPA ([4]; MDA-MB-468, increased MCT1 level): sensitive
- sensitivity to 3-BrPA with suppression of GAPDH expression by RNAi ([4]; MDA-MB-468 expressing shRNA targeted to GAPDH vs GFP control): markedly increased the sensitivity
- sensitivity to 3-BrPA [5]: resistant
- intermediates of the pentose phosphate pathway ([6]; wild type KBM7, 50 μM, 1 hour, LC-MS): accumulated intermediates of the pentose phosphate pathway
- glycolytic intermediates after glyceraldehyde 3-phosphate [6, 9]: depletion of those that come after
- glycolytic intermediates preceding glyceraldehyde 3-phosphate [6, 9]: accumulation of the glycolytic intermediates that precede glyceraldehyde 3-phosphate
- cause of anti-glycolytic effects from metabolite profiling ([6]; wild type vs MCT1-null KBM7 metabolite profiling): strongly implicates GAPDH inhibition
- sensitivity to 3-BrPA ([7]; BT-549, increased MCT1 level): sensitive
- sensitivity to 3-BrPA with suppression of GAPDH expression by RNAi ([7]; BT-549 expressing shRNA targeted to GAPDH vs GFP control): markedly increased the sensitivity
- sensitivity to 3-BrPA with partial suppression of MCT1 by RNAi ([7]; BT-549 expressing shRNAs targeting MCT1): sufficient to confer resistance
- AMPK and ACC phosphorylation, markers of energy stress [8]: robustly increasing
